Data set [1] concerns the target P-I type metalloproteinase Batx-I (Bothrops atrox, UniProt P0DJE1). In words: biochemical.
For another data set, the system named is PLA2 from snake venoms. As to conditions: same methodology as this paper; read-out: IC50 (PLA2 inhibition); cited from earlier work.

Each structure is given as a SMILES string.

Chain of P-I type metalloproteinase Batx-I (P0DJE1 whole entry, looked up): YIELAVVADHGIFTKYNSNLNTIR

As a reminder, the melting point is the temperature of the solid-liquid transition. Molecule `CCOC(=O)CSC(=O)c1ccc(Cl)cc1` [Compound I, Ethyl 2-((4-chlorobenzoyl)thio)acetate] yielded a melting point of 55.6 °C. Also, in data set [1] (read-out: Batx-I proteolytic activity still observed), the activity at 2000 µM was found to be 70%.

For orientation: IC50 means the concentration at which inhibition is half-maximal. Turning to `CCOC(=O)CSC(=O)c1cccc([N+](=O)[O-])c1` [II, Ethyl 2-((3-nitrobenzoyl)thio)acetate], the melting point was determined as 44.5 °C. Further, the half-inhibitory concentration (IC50) in data set [1] came to 2770 µM.

`CCOC(=O)CSC(=O)c1ccc([N+](=O)[O-])cc1` [III, Ethyl 2-((4-nitrobenzoyl)thio)acetate] registered a melting point of 56.2 °C. Also, in data set [1], the IC50 came to 1880 µM.

`O=C1c2c(O)cc(O)cc2O[C@H](c2ccc(O)cc2)[C@H]1c1c(O)cc(O)c2c(=O)cc(-c3ccc(O)c(O)c3)oc12` [Morelloflavone]: the IC50 in the data set on PLA2 from snake venoms is 380 µM.

`COc1cc(O)c2c(c1)O[C@H](c1ccccc1)CC2=O` [Pinostrobin]: the IC50 in the data set on PLA2 from snake venoms is 1850 µM.

These data come from PMC6630910 (Pharmaceuticals, 2019).
